According to US11583512B2, “Composition for relieving itch or irritation of skin, comprising thymol trimethoxycinnamate” (Amorepacific Corporation, priority 2020, dated 2023):

Target: T1, voltage-gated sodium channel Nav1.7 (Homo sapiens, UniProt Q15858)
T1 construct: host or cells: HEK293
Experiment: Nav1.7 inhibition, membrane potential fluorescence dye assay with veratridine stimulation in Human Nav1.7-HEK293 cells
Type: cell-based
Settings: 30 μM veratridine as stimulant
Description: Human Nav1.7-HEK293 cells are HEK293 (human embryonic kidney 293) cells stabilized by transforming the human Nav1.7 gene. One day before experiment, the Human Nav1.7-HEK293 cells were dispensed onto a 96-well plate with 8×10^4 cells/well and cultured in a 5% CO2 incubator at 37° C. for 24 hours. DMEM/F12 containing 10% fetal bovine serum (FBS) was used as a culture medium and geneticin (Gibco®, Thermo Fisher Scientific) was added to stabilize the cells.
24 hours later, after washing the 96-well plate once with a 20 mM HEPES Hanks' balanced salt solution (HBSS) buffer (hereinafter, referred to as a reaction buffer, Invitrogen®, Thermo Fisher Scientific), a membrane potential fluorescence dye (FLIPR®, Molecular Devices) was added to the human Nav1.7-HEK293 cells. […] After reaction for 10 minutes, the change in membrane potential depending on treatment with 30 μM veratridine as a stimulant was measured for each well for 55 seconds using a fluorescence plate reader (FlexStation3, Molecular Device, USA).
The inhibition rate was calculated in the same manner also for lidocaine (Sigma) which is used as a local anesthetic and itch-relieving agent.

T1 sequence (Q15858 whole entry): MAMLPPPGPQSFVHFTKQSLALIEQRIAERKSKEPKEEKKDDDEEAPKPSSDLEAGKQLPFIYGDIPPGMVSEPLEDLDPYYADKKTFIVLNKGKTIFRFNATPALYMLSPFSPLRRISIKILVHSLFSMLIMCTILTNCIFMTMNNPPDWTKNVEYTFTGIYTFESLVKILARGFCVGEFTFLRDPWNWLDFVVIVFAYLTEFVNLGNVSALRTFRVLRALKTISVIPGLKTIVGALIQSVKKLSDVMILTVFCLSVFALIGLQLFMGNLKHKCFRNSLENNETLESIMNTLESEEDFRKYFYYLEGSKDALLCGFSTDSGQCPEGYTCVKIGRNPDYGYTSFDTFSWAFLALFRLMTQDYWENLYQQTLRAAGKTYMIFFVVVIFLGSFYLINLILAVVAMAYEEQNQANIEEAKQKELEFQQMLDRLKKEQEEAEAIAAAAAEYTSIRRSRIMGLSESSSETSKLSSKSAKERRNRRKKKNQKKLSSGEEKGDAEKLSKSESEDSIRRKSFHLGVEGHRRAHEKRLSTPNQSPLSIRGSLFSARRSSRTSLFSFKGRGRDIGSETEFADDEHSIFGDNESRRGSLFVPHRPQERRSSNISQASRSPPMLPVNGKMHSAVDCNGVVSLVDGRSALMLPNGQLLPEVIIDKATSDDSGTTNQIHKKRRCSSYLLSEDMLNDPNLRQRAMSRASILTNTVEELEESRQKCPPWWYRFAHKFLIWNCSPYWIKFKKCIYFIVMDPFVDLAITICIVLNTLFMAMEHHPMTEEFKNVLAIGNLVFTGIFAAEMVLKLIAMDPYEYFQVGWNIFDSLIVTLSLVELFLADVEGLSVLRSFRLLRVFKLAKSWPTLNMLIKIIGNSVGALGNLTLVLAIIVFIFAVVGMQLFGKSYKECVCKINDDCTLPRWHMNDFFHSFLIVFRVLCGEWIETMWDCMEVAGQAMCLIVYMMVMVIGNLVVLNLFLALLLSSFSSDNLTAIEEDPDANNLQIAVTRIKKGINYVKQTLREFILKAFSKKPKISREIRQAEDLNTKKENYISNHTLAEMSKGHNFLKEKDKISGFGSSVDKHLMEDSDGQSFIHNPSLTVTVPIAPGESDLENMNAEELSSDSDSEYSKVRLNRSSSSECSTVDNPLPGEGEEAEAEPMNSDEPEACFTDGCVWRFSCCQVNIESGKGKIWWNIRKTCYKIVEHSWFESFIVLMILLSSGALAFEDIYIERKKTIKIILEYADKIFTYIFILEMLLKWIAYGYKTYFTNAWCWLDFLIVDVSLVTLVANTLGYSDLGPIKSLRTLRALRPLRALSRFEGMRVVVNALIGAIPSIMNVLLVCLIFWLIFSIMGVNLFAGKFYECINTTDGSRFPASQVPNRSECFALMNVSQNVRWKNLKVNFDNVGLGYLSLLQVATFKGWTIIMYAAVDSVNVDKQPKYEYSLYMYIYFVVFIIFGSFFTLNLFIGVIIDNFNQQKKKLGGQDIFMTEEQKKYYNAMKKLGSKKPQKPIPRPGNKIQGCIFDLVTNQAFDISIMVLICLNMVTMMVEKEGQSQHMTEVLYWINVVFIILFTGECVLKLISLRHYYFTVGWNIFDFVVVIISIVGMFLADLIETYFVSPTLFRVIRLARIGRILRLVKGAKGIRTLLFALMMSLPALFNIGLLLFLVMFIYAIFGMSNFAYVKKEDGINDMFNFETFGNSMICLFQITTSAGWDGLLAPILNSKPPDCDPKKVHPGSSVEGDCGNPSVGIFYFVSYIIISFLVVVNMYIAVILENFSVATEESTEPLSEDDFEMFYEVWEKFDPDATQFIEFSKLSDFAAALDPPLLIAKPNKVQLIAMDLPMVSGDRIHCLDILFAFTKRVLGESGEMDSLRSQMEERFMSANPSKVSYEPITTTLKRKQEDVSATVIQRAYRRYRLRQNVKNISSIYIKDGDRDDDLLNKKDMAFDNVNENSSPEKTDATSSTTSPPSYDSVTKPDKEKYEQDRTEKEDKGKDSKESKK

CCN(CC)CC(=O)Nc1c(C)cccc1C [Lidocaine, lidocaine]
IC50: 28.7 µM
